Assay results reported in publication PMC11246513, “Exploring bat-inspired cyclic tryptophan diketopiperazines as ABCB1 Inhibitors” (Communications Chemistry, 2024).

What was measured:
[1] = target: T1, bat ABCB1 (Pteropus alecto, UniProt L5JS44); test: rhodamine […] efflux inhibition, flow cytometry, PaKiT03 cells with ABCB1 KO control; type: cell-based
T1 construct: gene PAL_GLEAN10013639; endogenous ABCB1 in PaKiT03 cells

[2] = target: T2, ABCB1 (Homo sapiens, UniProt P08183); test: rhodamine […] efflux inhibition, flow cytometry, HEK293T ABCB1 cells; type: cell-based; parameters: human ABCB1 (ABCB1-TEV-His-FLAG) stably expressed in HEK293T
[3] = target: T2, ABCB1; type: biochemical; parameters: human ABCB1-FLAG, purified and reconstituted into egg lecithin liposome
[4] = target: T1, bat ABCB1; test: rhodamine […] efflux inhibition, flow cytometry, PaKiT03 cells; type: cell-based

T2 sequence (P08183 whole entry): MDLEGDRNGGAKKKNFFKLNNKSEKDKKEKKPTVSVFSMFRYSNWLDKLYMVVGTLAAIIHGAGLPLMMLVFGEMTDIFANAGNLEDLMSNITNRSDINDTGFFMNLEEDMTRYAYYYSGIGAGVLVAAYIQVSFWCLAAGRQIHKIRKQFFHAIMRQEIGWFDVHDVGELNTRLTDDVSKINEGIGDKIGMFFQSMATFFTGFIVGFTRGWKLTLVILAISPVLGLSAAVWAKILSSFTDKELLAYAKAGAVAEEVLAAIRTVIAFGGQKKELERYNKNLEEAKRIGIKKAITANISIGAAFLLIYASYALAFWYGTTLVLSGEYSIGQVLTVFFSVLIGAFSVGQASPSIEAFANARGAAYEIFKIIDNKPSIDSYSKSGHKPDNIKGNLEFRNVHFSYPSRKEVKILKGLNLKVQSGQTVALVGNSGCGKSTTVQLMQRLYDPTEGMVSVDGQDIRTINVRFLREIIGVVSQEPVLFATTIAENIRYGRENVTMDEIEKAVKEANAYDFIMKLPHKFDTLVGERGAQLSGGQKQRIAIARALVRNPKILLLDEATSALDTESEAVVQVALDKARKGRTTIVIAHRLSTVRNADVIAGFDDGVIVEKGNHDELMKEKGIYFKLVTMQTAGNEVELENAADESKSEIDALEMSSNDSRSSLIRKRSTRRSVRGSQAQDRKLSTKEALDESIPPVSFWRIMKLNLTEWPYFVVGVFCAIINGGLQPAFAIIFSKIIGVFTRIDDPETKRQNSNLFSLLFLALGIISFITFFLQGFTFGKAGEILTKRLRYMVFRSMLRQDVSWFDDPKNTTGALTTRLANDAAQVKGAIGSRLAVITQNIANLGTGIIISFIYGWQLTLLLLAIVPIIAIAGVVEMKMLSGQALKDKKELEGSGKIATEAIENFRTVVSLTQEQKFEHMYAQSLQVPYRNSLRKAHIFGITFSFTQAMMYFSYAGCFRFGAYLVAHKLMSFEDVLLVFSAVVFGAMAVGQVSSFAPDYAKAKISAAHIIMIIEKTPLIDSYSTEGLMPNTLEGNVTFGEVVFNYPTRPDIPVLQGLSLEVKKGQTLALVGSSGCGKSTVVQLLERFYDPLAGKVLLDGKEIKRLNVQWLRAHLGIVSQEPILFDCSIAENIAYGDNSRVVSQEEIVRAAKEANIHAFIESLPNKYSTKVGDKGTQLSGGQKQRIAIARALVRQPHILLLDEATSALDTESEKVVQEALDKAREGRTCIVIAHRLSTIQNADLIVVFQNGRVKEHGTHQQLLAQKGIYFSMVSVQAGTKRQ
T1 sequence (L5JS44 1-1308): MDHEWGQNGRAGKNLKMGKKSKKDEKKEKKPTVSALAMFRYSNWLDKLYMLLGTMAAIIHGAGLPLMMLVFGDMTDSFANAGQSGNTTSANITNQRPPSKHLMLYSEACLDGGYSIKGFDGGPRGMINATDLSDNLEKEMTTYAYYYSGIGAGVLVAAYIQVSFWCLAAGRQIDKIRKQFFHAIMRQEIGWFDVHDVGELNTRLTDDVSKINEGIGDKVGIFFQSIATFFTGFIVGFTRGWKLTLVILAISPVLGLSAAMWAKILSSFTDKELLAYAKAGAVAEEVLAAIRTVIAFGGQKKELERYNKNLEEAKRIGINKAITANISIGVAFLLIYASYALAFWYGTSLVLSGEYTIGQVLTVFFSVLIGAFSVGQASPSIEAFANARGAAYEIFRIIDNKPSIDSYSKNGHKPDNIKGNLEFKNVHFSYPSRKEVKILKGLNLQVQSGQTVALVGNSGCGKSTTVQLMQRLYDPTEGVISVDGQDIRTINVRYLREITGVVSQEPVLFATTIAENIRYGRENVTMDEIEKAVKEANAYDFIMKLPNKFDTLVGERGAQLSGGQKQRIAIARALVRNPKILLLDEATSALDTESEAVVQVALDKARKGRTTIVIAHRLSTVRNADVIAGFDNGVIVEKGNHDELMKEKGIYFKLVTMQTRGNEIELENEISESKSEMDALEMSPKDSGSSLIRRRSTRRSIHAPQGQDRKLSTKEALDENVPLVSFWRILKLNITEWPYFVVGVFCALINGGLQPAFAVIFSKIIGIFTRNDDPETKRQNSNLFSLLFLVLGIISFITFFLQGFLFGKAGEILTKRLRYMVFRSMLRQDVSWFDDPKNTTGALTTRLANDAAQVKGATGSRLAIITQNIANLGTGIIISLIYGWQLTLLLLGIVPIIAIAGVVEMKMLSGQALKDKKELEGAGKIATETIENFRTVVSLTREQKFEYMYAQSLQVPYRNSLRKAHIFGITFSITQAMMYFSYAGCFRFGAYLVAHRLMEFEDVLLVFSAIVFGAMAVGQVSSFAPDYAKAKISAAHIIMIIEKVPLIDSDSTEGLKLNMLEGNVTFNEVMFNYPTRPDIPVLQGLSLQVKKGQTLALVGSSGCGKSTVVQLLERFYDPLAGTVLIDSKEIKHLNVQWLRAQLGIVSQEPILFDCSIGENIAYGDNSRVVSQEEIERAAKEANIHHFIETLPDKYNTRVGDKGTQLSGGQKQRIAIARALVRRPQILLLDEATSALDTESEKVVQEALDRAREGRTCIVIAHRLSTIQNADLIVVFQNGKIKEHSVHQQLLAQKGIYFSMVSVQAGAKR

Row | Structure (SMILES) | IC50 [1] | IC50 [2] | ATPase stimulation of purified reconstituted ABCB1 (ADP by HPLC); supported by d [3] | IC50 [4]
1 | O=C1N[C@@H](Cc2c[nH]c3ccccc23)C(=O)N2[C@H]1C[C@@]1(Cc3ccccc3)c3ccccc3N(Cc3ccccc3)[C@@H]21 [C3N-Dbn-Trp2] | 0.9 µM | 5.9 µM |  | 
2 | Cn1cc(C[C@@H]2NC(=O)[C@H](Cc3cn(C)c4ccccc34)NC2=O)c2ccccc21 [Cyclo-(L-1-methyl-Trp-L-1-methyl-Trp)] |  |  | Cyclo-(L-1-methyl-Trp-L-1-methyl-Trp) consumed larger amounts of ATP than Cyclo-(L-Trp-L-Trp) in the in vitro ATPase assay | 
3 | O=C1N[C@@H](Cc2c[nH]c3ccccc23)C(=O)N[C@H]1Cc1c[nH]c2ccccc12 [Cyclo-(L-Trp-L-Trp)] |  |  | ~ 2 mM | 
4 | COc1cc2c(cc1OC)CN(CCc1ccc(NC(=O)c3cc(OC)c(OC)cc3NC(=O)c3cnc4ccccc4c3)cc1)CC2 [tariquidar] |  | 0.016 µM |  | 0.002 µM
